From patent US20160242416A1, “FUNGICIDAL ISOXAZOLINE CARBINOLS” (E I DU PONT DE NEMOURS AND COMPANY, priority 2015, published 2016) come the findings set out here.

For assay [1], the system named is Botrytis cinerea. Put plainly: Test B: gray mold, preventive spray on tomato seedlings. The settings on record: 10 ppm; gray mold on tomato; 100 = 100% disease control, 0 = no control.
For assay [2], the system named is Puccinia recondita f sp. tritici. Description: Test F: wheat leaf rust, preventive spray on wheat seedlings. The settings on record: 10 ppm; wheat leaf rust; 100 = 100% disease control, 0 = no control.
The test system of assay [3] is Stagonospora nodorum. Put plainly: Test D: wheat glume blotch, preventive spray on wheat seedlings. The settings on record: 10 ppm; wheat glume blotch; 100 = 100% disease control, 0 = no control.
Source text: General protocol for preparing test solutions for Tests A-G: the test compounds were first dissolved in acetone in an amount equal to 3% of the final volume and then suspended at the desired concentration (in ppm) in acetone and purified water (50/50 mix by volume) containing 250 ppm of the surfactant PEG400 (polyhydric alcohol esters). The resulting test suspensions were then used in Tests A-G. Compounds were sprayed at a concentration of 50 ppm (*) or 10 ppm to the point of run-off on the test plants, the equivalent of a rate of 200 g/ha or 40 g/ha, respectively.
The test solution was sprayed to the point of run-off on wheat seedlings. The following day the seedlings were inoculated with a spore suspension of Stagonospora nodorum (also known as Septoria nodorum; the causal agent of wheat glume blotch) and incubated in a saturated atmosphere at 20° C. for 48 h, and then moved to a growth chamber at 20° C. for 6 days, after which time visual disease ratings were made.
Compounds with an asterisks (*) were applied at a concentration of 50 ppm, otherwise test solutions were applied at 10 ppm.
Assay [4] has as its system Zymoseptoria tritici. Description: Test E: wheat leaf blotch, preventive spray on wheat seedlings. The following applies: 10 ppm; wheat leaf blotch; 100 = 100% disease control, 0 = no control.
Assay [5] concerns Erysiphe graminis f sp. tritici. Description: Test G: wheat powdery mildew, preventive spray on wheat seedlings. The following applies: 10 ppm; wheat powdery mildew; 100 = 100% disease control, 0 = no control.

On to `OC(Cn1cncn1)(C1=NOC(c2ccc(Oc3ccccc3)cc2)C1)c1ccc(Cl)cc1` (single isomer, unassigned) [Compound 143], for which the “Test B rating (% disease control)” value in assay [1] turned out to be 0%. For the same compound, in assay [2], the “Test F rating (% disease control)” value came out at 67%. Moreover, the “Test D rating (% disease control)” value in assay [3] stood at 0%. Moreover, in assay [4], the “Test E rating (% disease control)” value is given as 1%. Further, the “Test G rating (% disease control)” value in assay [5] is listed as 76%.

Regarding `OC(Cn1cncn1)(C1=NOC(COc2ccccc2)C1)c1ccc(Cl)cc1` (single isomer, unassigned) [Compound 144], the “Test B rating (% disease control)” value in assay [1] is reported as 0%. In addition, the “Test F rating (% disease control)” value in assay [2] turned out to be 100%. The “Test D rating (% disease control)” value in assay [3] turned out to be 99%. The “Test E rating (% disease control)” value in assay [4] is 17%. The “Test G rating (% disease control)” value in assay [5] came to 99%.

Turning to `OC(Cn1cncn1)(C1=NOC(c2ccc(C(F)(F)F)cc2)C1)c1ccc(Cl)cc1` (single isomer, unassigned) [Compound 146], in assay [1], the “Test B rating (% disease control)” value was 0%. Besides, the “Test F rating (% disease control)” value in assay [2] stood at 100%. Further, in assay [3], the “Test D rating (% disease control)” value worked out at 100%. For the same compound, the “Test E rating (% disease control)” value in assay [4] was found to be 99%. The “Test G rating (% disease control)” value in assay [5] was determined as 99%.

Turning to `OC(Cn1cncn1)(C1=NOC(c2ccc(C(F)(F)F)cc2)C1)c1ccc(Cl)cc1` (single isomer, unassigned) [Compound 147], the “Test B rating (% disease control)” value in assay [1] was determined as 0%. In assay [2], the “Test F rating (% disease control)” value is 100%. The “Test D rating (% disease control)” value in assay [3] worked out at 73%. In addition, the “Test E rating (% disease control)” value in assay [4] came to 17%. For the same compound, in assay [5], the “Test G rating (% disease control)” value was 90%.

With `OC(Cn1cncn1)(C1=NOC(c2ccc(-n3ccc(C(F)(F)F)n3)cc2)C1)c1ccc(Cl)cc1` (single isomer, unassigned) [Compound 148], in assay [1], the “Test B rating (% disease control)” value worked out at 0%. For the same compound, in assay [2], the “Test F rating (% disease control)” value turned out to be 100%. Also, the “Test D rating (% disease control)” value in assay [3] stood at 59%. Also, the “Test E rating (% disease control)” value in assay [4] amounted to 92%. In addition, in assay [5], the “Test G rating (% disease control)” value was 100%.

On to `OC(Cn1cncn1)(C1=NOC(c2ccc(-n3ccc(C(F)(F)F)n3)cc2)C1)c1ccc(Cl)cc1` (single isomer, unassigned) [Compound 149], for which, in assay [1], the “Test B rating (% disease control)” value is 0%. The “Test F rating (% disease control)” value in assay [2] turned out to be 36%. Moreover, in assay [3], the “Test D rating (% disease control)” value was determined as 0%. The “Test E rating (% disease control)” value in assay [4] was 38%. In addition, in assay [5], the “Test G rating (% disease control)” value came to 76%.

For `OC(Cn1cncn1)(C1=NOC(c2ccc(Cl)cc2)C1)c1ccccc1Cl` (single isomer, unassigned) [Compound 150], in assay [1], the “Test B rating (% disease control)” value turned out to be 0%. The “Test F rating (% disease control)” value in assay [2] came out at 100%. In assay [3], the “Test D rating (% disease control)” value amounted to 100%. Further, in assay [4], the “Test E rating (% disease control)” value amounted to 42%. Further, the “Test G rating (% disease control)” value in assay [5] is reported as 99%.

On to `OC(Cn1cncn1)(C1=NOC(c2ccc(Cl)cc2)C1)c1ccccc1Cl` (single isomer, unassigned) [Compound 151], for which the “Test B rating (% disease control)” value in assay [1] amounted to 0%. The “Test F rating (% disease control)” value in assay [2] turned out to be 84%. The “Test D rating (% disease control)” value in assay [3] was 0%. Also, the “Test E rating (% disease control)” value in assay [4] came out at 76%. For the same compound, in assay [5], the “Test G rating (% disease control)” value is on record as 90%.

With `OC(Cn1cncn1)(C1=NOC(c2ccc(C(F)(F)F)cc2)C1)c1ccc(C(F)(F)F)cc1` (single isomer, unassigned) [Compound 153], the “Test B rating (% disease control)” value in assay [1] amounted to 0%. For the same compound, the “Test F rating (% disease control)” value in assay [2] stood at 100%. The “Test D rating (% disease control)” value in assay [3] turned out to be 0%. In assay [4], the “Test E rating (% disease control)” value is given as 93%. For the same compound, the “Test G rating (% disease control)” value in assay [5] came out at 100%.

With `OC(Cn1cncn1)(C1=NOC(c2ccc(C(F)(F)F)cc2)C1)c1ccc(C(F)(F)F)cc1` (single isomer, unassigned) [Compound 154], the “Test B rating (% disease control)” value in assay [1] worked out at 0%. The “Test F rating (% disease control)” value in assay [2] was found to be 52%. The “Test D rating (% disease control)” value in assay [3] was 0%. Moreover, the “Test E rating (% disease control)” value in assay [4] was 1%. Besides, the “Test G rating (% disease control)” value in assay [5] is recorded as 83%.

`CCCCC(O)(Cn1cncn1)C1=NOC(c2ccc(Cl)cc2)C1` (single isomer, unassigned) [Compound 155]: the “Test B rating (% disease control)” value in assay [1] worked out at 0%. For the same compound, the “Test F rating (% disease control)” value in assay [2] was 100%. Besides, in assay [3], the “Test D rating (% disease control)” value is on record as 100%. Further, the “Test E rating (% disease control)” value in assay [4] is listed as 2%. In addition, in assay [5], the “Test G rating (% disease control)” value was 100%.

Turning to `CCCCC(O)(Cn1cncn1)C1=NOC(c2ccc(Cl)cc2)C1` (single isomer, unassigned) [Compound 156], in assay [1], the “Test B rating (% disease control)” value amounted to 0%. Besides, the “Test F rating (% disease control)” value in assay [2] turned out to be 100%. Besides, the “Test D rating (% disease control)” value in assay [3] stood at 98%. Also, the “Test E rating (% disease control)” value in assay [4] is given as 19%. The “Test G rating (% disease control)” value in assay [5] is 100%.

Turning to `OC(Cn1cncn1)(C1=NOC(c2cnccn2)C1)c1ccc(Cl)cc1` (single isomer, unassigned) [Compound 157], the “Test B rating (% disease control)” value in assay [1] is on record as 0%. Further, the “Test F rating (% disease control)” value in assay [2] came to 0%. The “Test D rating (% disease control)” value in assay [3] is 0%. Besides, the “Test E rating (% disease control)” value in assay [4] worked out at 0%. In addition, in assay [5], the “Test G rating (% disease control)” value worked out at 26%.

`OC(Cn1cncn1)(C1=NOC(c2ccc(F)cc2)C1)c1ccc(Cl)cc1` (single isomer, unassigned) [Compound 158]: the “Test B rating (% disease control)” value in assay [1] worked out at 0%. Besides, the “Test F rating (% disease control)” value in assay [2] is on record as 100%. Further, the “Test D rating (% disease control)” value in assay [3] turned out to be 96%. For the same compound, the “Test E rating (% disease control)” value in assay [4] is 3%. In addition, the “Test G rating (% disease control)” value in assay [5] is 100%.

Turning to `OC(Cn1cncn1)(C1=NOC(c2ccc(F)cc2)C1)c1ccc(Cl)cc1` (single isomer, unassigned) [Compound 159], in assay [1], the “Test B rating (% disease control)” value turned out to be 0%. Besides, the “Test F rating (% disease control)” value in assay [2] turned out to be 0%. In assay [3], the “Test D rating (% disease control)” value stood at 0%. Also, the “Test E rating (% disease control)” value in assay [4] is 0%. Moreover, in assay [5], the “Test G rating (% disease control)” value is listed as 97%.

As to `OC(Cn1cncn1)(C1=NOC(c2ccc(Cl)cc2)C1)c1ccc(F)cc1` (single isomer, unassigned) [Compound 160], the “Test B rating (% disease control)” value in assay [1] is listed as 75%. Also, in assay [2], the “Test F rating (% disease control)” value was determined as 100%. Also, the “Test D rating (% disease control)” value in assay [3] stood at 99%. Besides, in assay [4], the “Test E rating (% disease control)” value was 11%. Also, the “Test G rating (% disease control)” value in assay [5] came to 100%.

In the case of `OC(Cn1cncn1)(C1=NOC(c2ccc(Cl)cc2)C1)c1ccc(F)cc1` (single isomer, unassigned) [Compound 161], the “Test B rating (% disease control)” value in assay [1] amounted to 0%. For the same compound, the “Test F rating (% disease control)” value in assay [2] came out at 28%. In addition, the “Test D rating (% disease control)” value in assay [3] is given as 0%. Also, the “Test E rating (% disease control)” value in assay [4] came out at 0%. For the same compound, the “Test G rating (% disease control)” value in assay [5] is reported as 94%.

On to `OC(Cn1cncn1)(C1=NOC(COc2ccc(F)cc2)C1)c1ccc(Cl)cc1` (single isomer, unassigned) [Compound 162], for which the “Test B rating (% disease control)” value in assay [1] is 0%. Moreover, the “Test F rating (% disease control)” value in assay [2] worked out at 100%. Besides, the “Test D rating (% disease control)” value in assay [3] was 96%. The “Test E rating (% disease control)” value in assay [4] came to 76%. Also, the “Test G rating (% disease control)” value in assay [5] worked out at 100%.

As to `OC(Cn1cncn1)(C1=NOC(COc2ccc(F)cc2)C1)c1ccc(Cl)cc1` (single isomer, unassigned) [Compound 163], the “Test B rating (% disease control)” value in assay [1] is listed as 0%. The “Test F rating (% disease control)” value in assay [2] turned out to be 99%. Also, the “Test D rating (% disease control)” value in assay [3] came out at 0%. Moreover, the “Test E rating (% disease control)” value in assay [4] is recorded as 0%. Further, the “Test G rating (% disease control)” value in assay [5] was 86%.

In the case of `OC(Cn1cncn1)(C1=NOC(COc2ccc(Cl)cn2)C1)c1ccc(Cl)cc1` (single isomer, unassigned) [Compound 164], in assay [1], the “Test B rating (% disease control)” value is recorded as 0%. The “Test F rating (% disease control)” value in assay [2] was found to be 100%. Besides, the “Test D rating (% disease control)” value in assay [3] is given as 95%. Besides, in assay [4], the “Test E rating (% disease control)” value is on record as 96%. In addition, in assay [5], the “Test G rating (% disease control)” value stood at 100%.

For `OC(Cn1cncn1)(C1=NOC(COc2ccc(Cl)cn2)C1)c1ccc(Cl)cc1` (single isomer, unassigned) [Compound 165], the “Test B rating (% disease control)” value in assay [1] stood at 0%. In assay [2], the “Test F rating (% disease control)” value came to 99%. Also, the “Test D rating (% disease control)” value in assay [3] is 72%. For the same compound, the “Test E rating (% disease control)” value in assay [4] worked out at 5%. Moreover, the “Test G rating (% disease control)” value in assay [5] amounted to 100%.

As for `CC(C)(C)C(O)(Cn1cncn1)C1=NOC(c2cnccn2)C1` (single isomer, unassigned) [Compound 168], the “Test B rating (% disease control)” value in assay [1] was 11%. Further, the “Test F rating (% disease control)” value in assay [2] is listed as 0%. The “Test D rating (% disease control)” value in assay [3] is on record as 0%. Besides, the “Test E rating (% disease control)” value in assay [4] was found to be 3%. In addition, the “Test G rating (% disease control)” value in assay [5] is on record as 35%.

Regarding `CC(C)(C)C(O)(Cn1cncn1)C1=NOC(c2cnccn2)C1` (single isomer, unassigned) [Compound 169], in assay [1], the “Test B rating (% disease control)” value came out at 0%. Further, the “Test F rating (% disease control)” value in assay [2] was 0%. Also, in assay [3], the “Test D rating (% disease control)” value was found to be 9%. Besides, in assay [4], the “Test E rating (% disease control)” value came out at 4%. Also, in assay [5], the “Test G rating (% disease control)” value amounted to 0%.

Consider `CC(C)(C)CC(O)(Cn1cncn1)C1=NOC(COc2ccc(Br)cc2)C1` (single isomer, unassigned) [Compound 170], for which the “Test B rating (% disease control)” value in assay [1] turned out to be 0%. Further, in assay [2], the “Test F rating (% disease control)” value amounted to 100%. In addition, the “Test D rating (% disease control)” value in assay [3] was 99%. In assay [4], the “Test E rating (% disease control)” value came to 68%. For the same compound, the “Test G rating (% disease control)” value in assay [5] came to 99%.
